The source of these data is BindingDB's records for doi:10.1021/jm051056c (Targegen, 2007).

Molecules are shown by their SMILES.

In the experiment the target is Phosphatidylinositol 4,5-bisphosphate 3-kinase catalytic subunit gamma isoform (Homo sapiens, UniProt P48736). The experiment in a line: Determination of PI3K Activity. The settings on record: pH 7.4; 22 °C.
Phosphatidylinositol 4,5-bisphosphate 3-kinase catalytic subunit gamma isoform, sequence (P48736 whole entry, canonical isoform): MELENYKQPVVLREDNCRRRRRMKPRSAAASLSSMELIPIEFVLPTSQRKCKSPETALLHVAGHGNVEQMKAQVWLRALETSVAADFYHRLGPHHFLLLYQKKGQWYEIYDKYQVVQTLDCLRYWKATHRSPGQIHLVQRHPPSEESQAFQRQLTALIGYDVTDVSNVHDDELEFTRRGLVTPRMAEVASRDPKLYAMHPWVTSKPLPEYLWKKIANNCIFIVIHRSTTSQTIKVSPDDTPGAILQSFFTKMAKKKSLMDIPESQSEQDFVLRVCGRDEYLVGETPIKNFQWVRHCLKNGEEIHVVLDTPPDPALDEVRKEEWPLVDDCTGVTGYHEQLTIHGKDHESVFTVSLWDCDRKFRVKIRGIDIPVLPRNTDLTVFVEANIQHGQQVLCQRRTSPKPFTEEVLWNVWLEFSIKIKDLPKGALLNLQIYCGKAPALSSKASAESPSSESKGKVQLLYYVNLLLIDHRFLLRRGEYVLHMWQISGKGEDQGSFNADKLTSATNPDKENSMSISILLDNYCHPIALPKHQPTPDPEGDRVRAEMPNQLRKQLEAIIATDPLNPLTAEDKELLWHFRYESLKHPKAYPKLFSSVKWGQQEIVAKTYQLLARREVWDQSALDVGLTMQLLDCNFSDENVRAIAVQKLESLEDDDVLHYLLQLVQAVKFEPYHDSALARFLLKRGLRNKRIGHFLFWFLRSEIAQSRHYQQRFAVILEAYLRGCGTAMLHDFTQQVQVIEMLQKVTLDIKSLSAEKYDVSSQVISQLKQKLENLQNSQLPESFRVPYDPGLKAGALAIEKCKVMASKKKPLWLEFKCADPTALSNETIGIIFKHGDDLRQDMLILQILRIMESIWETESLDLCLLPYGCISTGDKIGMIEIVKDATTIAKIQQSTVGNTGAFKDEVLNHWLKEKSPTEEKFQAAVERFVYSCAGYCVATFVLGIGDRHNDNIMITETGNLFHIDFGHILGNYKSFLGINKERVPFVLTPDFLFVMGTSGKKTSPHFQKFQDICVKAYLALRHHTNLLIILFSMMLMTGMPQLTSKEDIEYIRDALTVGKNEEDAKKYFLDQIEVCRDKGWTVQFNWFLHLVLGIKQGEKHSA

The term IC50 denotes the midpoint of a concentration-inhibition curve. A lower IC50 goes with inhibition by little substance. In turn, `COc1cccc(-c2nc3nc(N)nc(N)c3nc2-c2cccc(OC)c2)c1` [6,7-bis(3-methoxyphenyl)pteridine-2,4-diamine] displayed an IC50 of 12.6 µM.
